According to ChEMBL document CHEMBL3124857, “Encoded library technology as a source of hits for the discovery and lead optimization of a potent and selective class of bactericidal direct inhibitors of Mycobacterium tuberculosis InhA” (J Med Chem, 2014):
Converted amounts (≈) assume the structure as drawn. The source made the active and inactive calls. No cut-off for these calls is given here.

Legend:
[1] = test system: Mycobacterium tuberculosis; assay: Antitubercular activity against wild type Mycobacterium tuberculosis H37Rv ATCC 25618 assessed as growth inhibition after 6 days by resazurin dye-based assay; format: functional; details: for MIC90: H37Rv ATCC 25618, 144 h
[2] = target: T1, Enoyl-[acyl-carrier-protein] reductase [NADH] (Mycobacterium tuberculosis, UniProt P9WGR1); assay: Inhibition of Mycobacterium tuberculosis full length biotinylated InhA (270 amino acids) using DDCoA as substrate assessed as NADH oxidation by fluorimetric analysis
T1 sequence (P9WGR1 whole entry): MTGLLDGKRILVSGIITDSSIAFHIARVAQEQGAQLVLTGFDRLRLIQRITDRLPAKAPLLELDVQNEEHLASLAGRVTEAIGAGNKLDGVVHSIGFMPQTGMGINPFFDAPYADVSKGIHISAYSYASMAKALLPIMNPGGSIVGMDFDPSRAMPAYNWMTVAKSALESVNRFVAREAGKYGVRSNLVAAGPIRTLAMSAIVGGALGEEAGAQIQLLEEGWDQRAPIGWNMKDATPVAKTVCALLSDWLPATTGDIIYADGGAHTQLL

| SMILES | MIC90 [1] [µM] | IC50 [2] [nM] | growth inhibition (GI) [1] |
| --- | --- | --- | --- |
| CCc1cc(C(=O)N[C@@H]2C[C@@H](C(=O)Nc3ccn(Cc4ccc(F)cc4)n3)N(C(=O)c3coc4ccccc34)C2)n(C)n1 | 4 (≈ 2.33 µg/mL) | 5 | – |
| CCc1cc(C(=O)N[C@@H]2CCN(C(=O)c3coc4ccccc34)C2)n(C)n1 | > 31 | 120 | – |
| CCc1cc(C(=O)N[C@@H]2C[C@@H](C(=O)Nc3cnn(CC)n3)N(C(=O)c3coc4ccccc34)C2)n(C)n1 | 4 (≈ 2.02 µg/mL) | 3 | – |
| CCc1cc(C(=O)N[C@@H]2C[C@@H](C(=O)Nc3ccccn3)N(C(=O)c3coc4ccccc34)C2)n(C)n1 | 4 (≈ 1.95 µg/mL) | 11 | – |
| CCc1cc(C(=O)N[C@@H]2C[C@@H](C(=O)NCc3ccccn3)N(C(=O)c3coc4ccccc34)C2)n(CC)n1 | 0.7 (≈ 0.36 µg/mL) | 2 | – |
| CCc1cc(C(=O)N[C@@H]2C[C@@H](C(=O)NC3CCCC3)N(C(=O)c3coc4ccccc34)C2)n(C)n1 | 4 (≈ 1.91 µg/mL) | 40 | – |
| CCc1cc(C(=O)N[C@@H]2C[C@@H](C(=O)NCc3ccc(C)o3)N(C(=O)c3coc4ccccc34)C2)n(C)n1 | 1.5 (≈ 0.755 µg/mL) | 21 | – |
| CCc1cc(C(=O)N[C@@H]2C[C@@H](C(=O)NCCOC)N(C(=O)c3coc4ccccc34)C2)n(C)n1 | 4 (≈ 1.87 µg/mL) | 14 | – |
| CCc1cc(C(=O)N[C@@H]2C[C@@H](C(=O)NCCc3ccccn3)N(C(=O)c3coc4ccccc34)C2)n(CC)n1 | 0.5 (≈ 0.264 µg/mL) | 4 | – |
| CCc1cc(C(=O)N[C@@H]2C[C@@H](C(=O)NCC(=O)OC)N(C(=O)c3coc4ccccc34)C2)n(Cc2ccccc2)n1 | > 31 | > 1000 | – |
| CCc1cc(C(=O)N[C@@H]2C[C@@H](C(=O)NCc3ccn(CC)n3)N(C(=O)c3coc4ccccc34)C2)n(C)n1 | 4 (≈ 2.07 µg/mL) | 32 | – |
| CCc1cc(C(=O)N[C@@H]2C[C@@H](C(=O)N(CC)CC)N(C(=O)c3coc4ccccc34)C2)n(C)n1 | > 31 | 948 | – |
| CCCc1cc(C(=O)N[C@@H]2C[C@@H](C(=O)NCC(=O)OC)N(C(=O)c3coc4ccccc34)C2)n(C)n1 | 0.5 (≈ 0.248 µg/mL) | 22 | – |
| CCc1cc(C(=O)N[C@@H]2C[C@@H](C(=O)Nc3ccn(CC4CCCCC4)n3)N(C(=O)c3coc4ccccc34)C2)n(C)n1 | > 31 | > 1000 | – |
| CCc1cc(C(=O)N[C@@H]2C[C@@H](C(=O)NCc3cnc(C)cn3)N(C(=O)c3coc4ccccc34)C2)n(C)n1 | 8 (≈ 4.12 µg/mL) | 22 | – |
| CCc1cc(C(=O)N[C@@H]2C[C@@H](C(N)=O)N(C(=O)c3coc4ccccc34)C2)n(C)n1 | 3 (≈ 1.23 µg/mL) | 12 | – |
| CCc1cc(C(=O)N[C@@H]2C[C@@H](C(=O)Nc3ccn(Cc4c(F)cccc4F)n3)N(C(=O)c3coc4ccccc34)C2)n(C)n1 | 0.7 (≈ 0.421 µg/mL) | 4 | – |
| CCc1cc(C(=O)N[C@@H]2C[C@@H](C(=O)NCc3nccs3)N(C(=O)c3coc4ccccc34)C2)n(C)n1 | 2 (≈ 1.01 µg/mL) | 17 | – |
| CCNC(=O)[C@@H]1C[C@@H](NC(=O)c2cc(CC)nn2C)CN1C(=O)c1ccc2occc2c1 | – | 74 | – |
| CCc1cc(C(=O)N[C@@H]2C[C@@H](C(=O)NCc3ccc(F)c(F)c3)N(C(=O)c3coc4ccccc34)C2)n(C)n1 | 2 (≈ 1.07 µg/mL) | 9 | – |
| CCCNC(=O)[C@@H]1C[C@@H](NC(=O)c2cc(CC)nn2C)CN1C(=O)c1coc2ccccc12 | 15.6 (≈ 7.04 µg/mL) | 21 | – |
| CCNC(=O)[C@@H]1C[C@@H](NC(=O)c2cc(CC)nn2C)CN1C(=O)c1ccc2sccc2c1 | – | 121 | – |
| CCc1cc(C(=O)N[C@@H]2C[C@@H](C(=O)Nc3ccc4c(c3)B(O)OC4)N(C(=O)c3coc4ccccc34)C2)n(C)n1 | 4 (≈ 2.17 µg/mL) | 26 | – |

| SMILES | MIC90 [1] [µM] | IC50 [2] [nM] | growth inhibition (GI) [1] |
| --- | --- | --- | --- |
| CCOC(=O)CCNC(=O)[C@@H]1C[C@@H](NC(=O)c2cc(CC)nn2C)CN1C(=O)c1coc2ccccc12 | 4 (≈ 2.04 µg/mL) | 22 | – |
| CCNC[C@@H]1C[C@@H](NC(=O)c2cc(CC)nn2C)CN1C(=O)c1coc2ccccc12 | > 31 | 440 | – |
| CCc1cc(C(=O)N[C@@H]2C[C@@H](C(=O)NCc3nc(C)no3)N(C(=O)c3coc4ccccc34)C2)n(C)n1 | 2 (≈ 1.01 µg/mL) | 7 | – |
| CCc1cc(C(=O)N[C@@H]2C[C@@H](C(=O)NCC3CCCO3)N(C(=O)c3coc4ccccc34)C2)n(C)n1 (stereo not given in full) | 4 (≈ 1.97 µg/mL) | 45 | – |
| CCc1cc(C(=O)N[C@@H]2C[C@@H](C(=O)Nc3cc(C)on3)N(C(=O)c3coc4ccccc34)C2)n(C)n1 | 16 (≈ 7.85 µg/mL) | 18 | – |
| CCc1cc(C(=O)N[C@@H]2C[C@@H](C(=O)NCC(F)(F)F)N(C(=O)c3coc4ccccc34)C2)n(C)n1 | 4 (≈ 1.97 µg/mL) | 46 | – |
| CCc1cc(C(=O)N[C@@H]2C[C@@H](C(=O)NCCNC(C)=O)N(C(=O)c3coc4ccccc34)C2)n(C)n1 | 4 (≈ 1.98 µg/mL) | 20 | – |
| CCc1cc(C(=O)N[C@@H]2C[C@@H](C(=O)NCc3ccc(C(F)(F)F)cc3)N(C(=O)c3coc4ccccc34)C2)n(C)n1 | 16 (≈ 9.08 µg/mL) | 42 | – |
| CCc1cc(C(=O)N[C@@H]2C[C@@H](C(=O)NCC(=O)OC)N(C(=O)c3coc4ccccc34)C2)n(CCO)n1 | > 31 | > 1000 | – |
| COC(=O)CNC(=O)[C@@H]1C[C@@H](NC(=O)c2cc(C3CC3)nn2C)CN1C(=O)c1coc2ccccc12 | 1 (≈ 0.494 µg/mL) | 15 | – |
| CCc1cc(C(=O)N[C@@H]2C[C@@H](C(=O)NCCO)N(C(=O)c3coc4ccccc34)C2)n(CC)n1 | 1 (≈ 0.468 µg/mL) | 3 | – |
| CCc1cc(C(=O)N[C@@H]2C[C@@H](C(=O)NCCN(C)C)N(C(=O)c3coc4ccccc34)C2)n(C)n1 | > 31 | 170 | – |
| CCc1cc(C(=O)N[C@@H]2C[C@@H](C(=O)NCc3nc(C)no3)N(C(=O)c3coc4ccccc34)C2)n(CC)n1 | 0.5 (≈ 0.26 µg/mL) | 4 | – |
| CCc1cc(C(=O)N[C@@H]2C[C@@H](C(=O)NCC3OB(O)c4ccccc43)N(C(=O)c3coc4ccccc34)C2)n(C)n1 (stereo not given in full) | 2 (≈ 1.11 µg/mL) | 35 | – |
| CCc1cc(C(=O)N[C@@H]2C[C@@H](C(=O)NCc3ccc(OC(F)(F)F)cc3)N(C(=O)c3coc4ccccc34)C2)n(C)n1 | 23.4 (≈ 13.7 µg/mL) | 5 | – |
| CCc1cc(C(=O)N[C@@H]2C[C@@H](C(=O)NCC(=O)NC)N(C(=O)c3coc4ccccc34)C2)n(C)n1 | – | – | Active |
| CCc1cc(C(=O)N[C@@H]2C[C@@H](C(=O)NCCc3ccccn3)N(C(=O)c3coc4ccccc34)C2)n(C)n1 | 1 (≈ 0.515 µg/mL) | 25 | – |
| CCc1cc(C(=O)N[C@@H]2C[C@@H](C(=O)NCc3ccccc3)N(C(=O)c3coc4ccccc34)C2)n(C)n1 | 4 (≈ 2 µg/mL) | 41 | – |
| CCc1cc(C(=O)N[C@@H]2C[C@@H](C(=O)NCc3ccc4c(c3)B(O)OC4)N(C(=O)c3coc4ccccc34)C2)n(CC)n1 | 0.2 (≈ 0.114 µg/mL) | 2 | – |
| CCc1cc(C(=O)N[C@@H]2C[C@@H](C(=O)NCC(N)=O)N(C(=O)c3coc4ccccc34)C2)n(C)n1 | – | – | Active |
| CCc1cc(C(=O)N[C@@H]2C[C@@H](C(=O)NCC(=O)N(C)C)N(C(=O)c3coc4ccccc34)C2)n(C)n1 | – | – | Active |
| CCc1cc(C(=O)N[C@@H]2C[C@@H](C(=O)O)N(C(=O)c3coc4ccccc34)C2)n(C)n1 | – | 1290 | – |
| CCc1cc(C(=O)N[C@@H]2C[C@@H](C(=O)OC)N(C(=O)c3coc4ccccc34)C2)n(C)n1 | – | 215 | – |
